Measured values taken from patent publication US7868135B2, “Compositions of lipopeptide antibiotic derivatives and methods of use thereof” (priority 2003, dated 2011).

What was measured:
[1] = In vivo half-life after single i.v. administration, mice; conditions: female, Swiss CD1, mouse, plasma, iv, 10 mg/kg
Procedure: (§1) Yet other exemplary in vivo models can be used to characterize the pharmacokinetics and pharmacodynamic parameters of antimicrobial compounds of this disclosure. Some parameters that can be measured include an in vivo half-life of a compound, elimination rate and clearance, volume of distribution, and bioavailability. For example, briefly, compounds can be administered as a single i.v. or oral (p.o.) dose in mice or rats. At various time points (ranging from 1 minute to 72 hours), blood from treated animals is collected and the concentration of lipopeptide derivative in the ex vivo plasma can be quantified by, for example, liquid chromatography with mass spectrometric detection (LC/MS). After quantification, pharmacokinetics parameters can be calculated using methods known in the art, such as a one compartment model with mono-exponential decay and linear regression analysis (see, e.g., Fantin et al., Antimicrob. Agents Chemotherap. 35: 1413. 1991).
(§2) A pharmacokinetic parameter that can be measured, and which aids in determining efficacy, after a single i.v. administration of an antimicrobial lipopeptide derivative of the instant disclosure is the systemic half-life of the compound. Briefly, test compounds were dissolved in a 5% mannitol solution (pH was then adjusted) to a concentration of 1 mg/mL (w/v). A single intravenous injection in the lateral caudal vein of Swiss CD1 mice (5 to 6 weeks old, female) or Sprague Dawley rats (male) was used to administer the lipopeptide derivative at a final dose of 10 mg/kg. At various time points (ranging from about 4 minutes to about 24 hours for mice, and 48 or 72 hours for rats) mice were sacrificed and blood was harvested. The concentration of lipopeptide derivative in ex vivo plasma was quantified using liquid chromatography (LC) with mass spectrometric detection (MS).

[2] = Acute toxicity, maximum tolerated dose (MTD); conditions: Swiss CD1, mouse, in vivo, iv
Procedure: Another measure of toxicity is the maximum tolerated dose (MTD), which is determined as a dose level that is not accompanied by mortality or life-threatening toxicity. The dose ratio between toxic and therapeutic effect is the therapeutic index. […] The data obtained from these cell culture assays and animal studies can be used in formulating a dosage range that is not toxic for use in human subjects. […] The dosage may vary within this range depending upon the dosage form employed and the route of administration utilized. The exact formulation, route of administration and dosage can be chosen by the individual physician in view of the patient's condition or need thereof (see, e.g., Fingl et al., 1975, In: The Pharmacological Basis of Therapeutics, Chapter 1).
For example, to examine acute toxicity, lipopeptide antibiotics of the invention can be tested in an animal model, such as Swiss CD1 mice, to determine the MTD. In certain embodiments, the animals used to test toxicity of a particular compound can be approximately 5-6 weeks old at the start of the experiment and weigh 22-26 g. The lipopeptides may be administered intravenously (i.v.) into, for example, the caudal tail vein at dose levels that range from about 50 to about 500 mg/kg, or from about 75 to about 250 mg/kg, or from about 100 to about 200 mg/kg, or at a dose range at or below 100 mg/kg. The animals are generally observed immediately after administration, 1-2 hours post administration, 5-8 hours post administration, and once daily thereafter. Observations include both the activity level of the mouse as well as any physical side effects from the administered dose. The animal weight is recorded on day 0 (immediately before dosing) and on day 7.

[3] = system: S. aureus Smith (SAU0017, ATCC 19636); assay: Intraperitoneal murine model of protection against infection (ED50, Table 21); format: in vivo, Staphylococcus aureus; conditions: Swiss CD1 mice infected i.p., compound i.v.
Text: (§3) A variety of in vivo models may be used to assess the antimicrobial properties of lipopeptide derivative compounds of this disclosure. For example, antimicrobial compounds of the instant disclosure may be tested for efficacy by measuring a compound's ability to protect a mouse against a microbial infection, such as an infection or disease caused by or related to Gram-positive bacteria, including Staphylococcus aureus, Streptococcus pneumoniae, and Enterococcus faecalis. […] A certain period after infection, mice are then individually treated, for example intravenously (i.v.), with a lipopeptide derivative of this disclosure.
(§4) Antimicrobial lipopeptide derivatives of the instant invention were tested for antimicrobial activity against Gram-positive bacteria in an intraperitoneal (i.p.) murine model (i.e., bacteria were injected i.p. and lipopeptide compounds were administered intravenously (i.v.)). Mice were infected with Staphylococcus aureus, Streptococcus pneumoniae, or Enterococcus faecalis, which were prepared as follows: S. aureus Smith (SAU0017, ATCC 19636) were grown in culture overnight on trypticase soy broth, harvested and then resuspended in fresh media containing 5% mucin (Sigma Chemical Co.); S. pneumoniae (SPN 0032, ATCC 10813) were grown overnight on blood agar plates and re-suspended in 0.9% sterile saline; and E. faecalis EFS0040 (clinical isolate) were grown overnight in culture on blood heart infusion broth, washed and resuspended in 0.9% saline and mixed with equal volume of sterile fecal rat extract. Swiss CD1 mice were each infected i.p. with bacteria at the following doses: S. aureus at 10^6 CFU/mouse; S. pneumoniae at 10^2 CFU/mouse; or E. faecalis at 10^7.5 CFU/mouse. […] The ED50 for each compound was calculated using the method of Reed and Meunch (Am. J. Hyg. 27: 493, 1938).

[4] = system: S. pneumoniae (SPN 0032, ATCC 10813); assay: as above; format: in vivo, Streptococcus pneumoniae; conditions: Swiss CD1 mice infected i.p., compound i.v.
Text: as §3, §4

[5] = system: E. faecalis EFS0040 (clinical isolate); assay: as above; format: in vivo, Enterococcus faecalis; conditions: Swiss CD1 mice infected i.p., compound i.v.
Text: as §3, §4

[6] = system: Staphylococcus aureus (MSSA); conditions: 24 h
Summary of the method: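 Broth microdilution MIC per NCCLS M7-A6 with doubling serial dilutions, in cation-adjusted Mueller-Hinton broth supplemented with 0.625 mM calcium.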

in vivo = conditions: male, Sprague Dawley, rat, plasma, iv, 10 mg/kg
Procedure: as §1, §2

Staphylococcus aureus = format: cell-based; conditions: for Post Antibiotic Effect (hours) 0.5 × MIC: exposure one hour at 0.5 × MIC, S. aureus log phase; for Post Antibiotic Effect (hours) 1 × MIC: exposure one hour at 1 × MIC; for Post Antibiotic Effect (hours) 2 × MIC: exposure one hour at 2 × MIC; for Post Antibiotic Effect (hours) 4 × MIC: exposure one hour at 4 × MIC
Procedure: An exemplary pharmacokinetic parameter to aid in characterizing the properties of lipopeptide derivative compounds of the disclosure is post-antibiotic effect (PAE) of a lipopeptide derivative. For example, a bacterial culture with an initial count of 10^6 to 10^7 colony forming units per ml (CFU/ml) is treated with a certain concentration of lipopetide derivative for a certain time and a parallel (control) culture is left untreated. After treatment, the lipopetide derivative is removed from the culture (e.g., by dilution 1:1000 in fresh, lipopetide derivative-free medium), and the untreated culture is manipulated in the same way. Then the cultures are further incubated and monitored for bacterial growth over time. […] By way of background and not wishing to be bound by theory, a lipopeptide derivative having a measurable PAE activity will likely provide additional time for the host immune system to remove bacteria that might have survived antibiotic treatment and reproduced after the antibiotic is degraded, removed or filtered from the circulatory system. A longer PAE can influence the clinical outcome of antimicrobial therapy (i.e., a lower dose of a lipopetide derivative may be used to treat an infection or the frequency of a dosing regimen can be reduced).
After removal of the lipopeptide compounds, bacterial titre was determined each hour to monitor bacterial re-growth. The PAE duration is defined as the difference in time required for antimicrobial exposed bacterial cells versus unexposed bacterial cells to achieve an increase of 1 log10 unit in CFU/mL.

[7] = system: Streptococcus pneumoniae (SPN032, ATCC 1081); assay: Intranasal murine lung infection model; format: in vivo; conditions: Swiss CD1 mice, i.n. S. pneumoniae, i.v. treatment at 3, 24 and 48 hours post-infection, deaths over ten days
Procedure: Other exemplary in vivo models of infection that may be used to assess, for example, the efficacy of an antimicrobial lipopeptide of the instant disclosure include the following: (A) a mouse (murine) model of lung infection (pneumonia) wherein the bacterial infection is administered intranasally (i.n.); (B) a murine thigh muscle model wherein the bacterial infection is administered intramuscularly (i.m.) in normal or neutropenic (immunocompromised) mice; and (C) a combination murine thigh muscle model (i.m. infection)/lung (i.n.) infection.
Antimicrobial lipopeptide derivatives of the instant invention were tested for antimicrobial activity against Gram-positive bacteria in an intranasal (i.n.) murine lung infection model (i.e., bacteria were innoculated i.n. and lipopeptide compounds were administered i.v.). Streptococcus pneumoniae (SPN032, ATCC 1081) were grown on 5% sheep blood agar plates for 24 h at 37° C., harvested and then resuspended in 0.9% saline. A group of eight Swiss CD1 mice were sedated with 2% isoflurane, and each was infected i.n. dropwise to the nares with 50 μl of the prepared bacterial inoculum (i.e., a dose of about 10^6 CFU/mouse). […] The ED50 (mg/kg) for each compound was calculated using the method of Reed and Meunch (Am. J. Hyg. 27: 493, 1938).

[8] = system: Streptococcus pneumoniae (SPN0002); assay: Lung infection model in neutropenic mice; format: in vivo
Procedure: Antimicrobial lipopeptide derivatives of the instant invention were tested for antimicrobial activity against Gram-positive bacteria in an intranasal (i.n.), immunocomprimised murine lung infection model (i.e., bacteria were innoculated i.n. and lipopeptide compounds were administered i.v.). Streptococcus pneumoniae (SPN0002) were grown on 5% sheep blood agar plates for 24 h at 37° C., harvested and then resuspended in 0.9% saline. A group of three to four Swiss CD1 mice were rendered neutropenic by administration of cyclophosphamide (Sigma Chemical Co.; 150 mg/kg, i.p.) on day −4 and −1 before infection. At time −18 to −24 hours, each mouse was infected i.n. dropwise via the nares with 50 μl of the prepared bacterial inoculum (i.e., a dose of about 5×10^6 CFU/mouse). At 18 to 24 hours post-infection, the groups of mice received i.v. (1) a lipopeptide derivative formulated in a 5% D-mannitol solution at a dose of about 1 mg/kg, 3 mg/kg, 10 mg/kg, or 30 mg/kg; (2) the 5% mannitol vehicle alone at a dose volume of 10 mL/kg; or (3) a known antibiotic, such as ampicillin, at a similar dose as the lipopeptide compounds. At 18 to 24 hours post-antibiotic treatment, mice were sacrificed and lungs harvested. Lungs were sampled by spreading homogenates on blood agar plates and incubating for 24 h at 37° C., and then counting the number of CFU. The EKill (killing effect; i.e., log10 CFU/lung reduction as compared to CFU count at intial treatment time) and the EMax (maximum reduction effect; i.e., log10 CFU/lung reduction as compared to CFU count of control at 24 hours) for each compound was calculated.

Compound	half-life [1]	MTD at 7 days [2]	ED50 in Mice, S. aureus (SAU0017) [3]	ED50 in Mice, S. pneumoniae (SPN0032) [4]	ED50 in Mice, E. faecalis (EFS0040) [5]	MIC [6]	half-life (in vivo)	MIC used for the PAE experiment (Staphylococcus aureus)	Post Antibiotic Effect (hours) 0.5 × MIC (Staphylococcus aureus)	Post Antibiotic Effect (hours) 1 × MIC (Staphylococcus aureus)	Post Antibiotic Effect (hours) 2 × MIC (Staphylococcus aureus)	Post Antibiotic Effect (hours) 4 × MIC (Staphylococcus aureus)	ED50 [7]	ED50 ([5]; Enterococcus faecalis, read-out: ED50 in Mice, E. faecalis (EFS0040))	EKill (log10 CFU/lung reduction versus count at initial treatment time) ([8]; 30 mg/kg i.v.)	log10 CFU/lung reduction (EMax, versus control at 24 hours) ([8]; highest dose level 30 mg/kg i.v.)
CCCCCCCCCCCCCCC(=O)NC(CC(=O)O)C(=O)NC1C(=O)N2CCCCC2C(=O)NC(C(C)C(=O)O)C(=O)NC(CC(=O)O)C(=O)NCC(=O)NC(CC(=O)O)C(=O)NCC(=O)NC(C(C)NC(=O)CN)C(=O)NC(C(C)C)C(=O)N2CCCC2C(=O)NC1C (stereo not shown) [Compound 3, C15-Amphomycin-9-Gly]	6.65 h	50 to 200 mg/kg	4.9 mg/kg	1.3 mg/kg	–	–	–	–	–	–	–	–	–	–	–	–
CCCCCCCCCCCCCCNC(=O)NC(CC(=O)O)C(=O)NC1C(=O)N2CCCCC2C(=O)NC(C(C)C(=O)O)C(=O)NC(CC(=O)O)C(=O)NCC(=O)NC(CC(=O)O)C(=O)NCC(=O)NC(C(C)NC(=O)CCN)C(=O)NC(C(C)C)C(=O)N2CCCC2C(=O)NC1C (stereo not drawn) [Compound 278, CH3—(CH2)13—NH—C(═O)-Amphomycin-9-(β-Ala)]	7.45 h	200 to 400 mg/kg	7.1 mg/kg	–	5.3 mg/kg	0.5 µg/mL	7.08 h	2 µg/mL	1.5 h	2.6 h	2.2 h	3.2 h	–	–	–	–
CCCCCCCCCCCC(=O)Nc1ccc(C(=O)NC(CC(=O)O)C(=O)NC2C(=O)N3CCCCC3C(=O)NC(C(C)C(=O)O)C(=O)NC(CC(=O)O)C(=O)NCC(=O)NC(CC(=O)O)C(=O)NCC(=O)NC(C(C)NC(=O)CCN)C(=O)NC(C(C)C)C(=O)N3CCCC3C(=O)NC2C)cc1 (stereo not drawn) [Compound 280, C12-PABA-Amphomycin-9-(β-Ala)]	5.75 h	200 to 400 mg/kg	6.5 mg/kg	–	2.1 mg/kg	–	7.07 h	–	2.5 h	1.5 h	1.9 h	2.4 h	1.8 mg/kg	–	–	–
CC1(C)S[C@@H]2[C@H](NC(=O)[C@H](N)c3ccccc3)C(=O)N2[C@H]1C(=O)O [ampicillin, reference compound]	–	–	–	–	–	–	–	–	–	–	–	–	–	4.2 mg/kg	1.8 log10 CFU/lung	2.58 log10 CFU/lung
